Results on five molecules are retold here after ChEMBL document CHEMBL1201862, “PubChem BioAssay data set” (2004).

Molecules are shown by their SMILES. The source made the active and inactive calls. Some results are limits rather than exact numbers.

The nature of assay [1]: Luminescence Cell-Based Dose Confirmation HTS to Identify Inhibitors of Polyadenylation. In kind it is functional.
Assay [2] addresses T1, Protein Tat (Human immunodeficiency virus type 1 group M subtype B (isolate HXB2)(HIV-1), UniProt P04608).
T1 sequence (P04608 whole entry): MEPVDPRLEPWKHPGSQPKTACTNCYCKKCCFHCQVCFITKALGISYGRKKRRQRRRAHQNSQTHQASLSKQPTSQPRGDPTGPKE
The assay is classed as functional.

Assay [3] deals with SUMO E1/E2 (Homo sapiens, UniProt P63279+Q9UBE0+Q9UBT2). The assay is described as follows: SAR analysis of SUMOylation using HTRF in an in-Vitro dose response assay. [Related pubchem assays (depositor defined):AID2006, AID2011, AID2018, AID2069, AID2658]. The assay is classed as functional. (In general: Time-resolved FRET reads energy transfer from a long-lived donor to a nearby acceptor.)

Assay [4] has as its target T2, Voltage-gated N-type calcium channel alpha-1B subunit/Amyloid beta A4 precursor protein-binding family A member 1 (Homo sapiens, UniProt Q00975+Q02410). The assay is described as follows: disruptors of Mint-PDZ/N-type channel peptide interaction – biochemical, HTRF, set 2, SAR follow-up (AID 434980). The assay is classed as functional.
Assay [5] in a line: viability loss in THP-1 monocytes – THP-1 cells, cytotoxicity control for Vif-APOBEC3G degradation inhibitor project, dose response (AID 1117359). In kind it is functional. To be noted: THP-1.
Assay [6] has as its target Induced myeloid leukemia cell differentiation protein Mcl-1 (Homo sapiens, UniProt Q07820). In kind it is functional.
For assay [7], the target named is T3, SUMO-activating enzyme (Homo sapiens, UniProt Q9UBT2). The assay is described as follows: blockers of UBC9-mediated SUMO conjugation – biochemical, AlphaScreen, SUMOylation inhibitor project, confirmation (AID 2018). In kind it is functional. (Bead proximity is the source of the signal in Alpha formats.)
T3 sequence (Q9UBE0 whole entry): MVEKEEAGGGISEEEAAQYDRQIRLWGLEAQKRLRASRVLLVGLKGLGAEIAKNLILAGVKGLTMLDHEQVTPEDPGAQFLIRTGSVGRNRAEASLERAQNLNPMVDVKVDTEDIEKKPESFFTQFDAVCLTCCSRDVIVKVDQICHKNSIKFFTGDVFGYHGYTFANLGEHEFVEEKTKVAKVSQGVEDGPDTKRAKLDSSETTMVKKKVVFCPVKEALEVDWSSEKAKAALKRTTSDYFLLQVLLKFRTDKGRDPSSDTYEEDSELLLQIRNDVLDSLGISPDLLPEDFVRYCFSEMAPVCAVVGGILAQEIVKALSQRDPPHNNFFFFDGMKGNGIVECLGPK
T3 sequence (Q9UBT2 whole entry): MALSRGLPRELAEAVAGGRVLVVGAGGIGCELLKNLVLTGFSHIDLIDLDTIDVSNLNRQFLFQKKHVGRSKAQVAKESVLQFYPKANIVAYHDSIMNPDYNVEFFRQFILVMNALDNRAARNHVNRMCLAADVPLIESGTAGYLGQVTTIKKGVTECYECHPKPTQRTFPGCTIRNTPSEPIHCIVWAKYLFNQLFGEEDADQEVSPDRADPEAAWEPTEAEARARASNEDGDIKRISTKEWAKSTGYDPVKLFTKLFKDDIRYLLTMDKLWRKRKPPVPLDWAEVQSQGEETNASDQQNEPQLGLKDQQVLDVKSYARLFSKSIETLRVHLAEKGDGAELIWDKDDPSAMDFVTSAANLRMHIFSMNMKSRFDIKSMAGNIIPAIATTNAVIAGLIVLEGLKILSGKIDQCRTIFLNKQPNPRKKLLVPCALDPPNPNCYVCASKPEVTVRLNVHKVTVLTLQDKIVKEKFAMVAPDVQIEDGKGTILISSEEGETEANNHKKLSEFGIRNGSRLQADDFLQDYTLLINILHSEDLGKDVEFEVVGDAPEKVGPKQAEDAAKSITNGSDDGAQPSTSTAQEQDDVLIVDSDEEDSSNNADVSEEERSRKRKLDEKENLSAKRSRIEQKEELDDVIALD
Assay [8] has as its target Genome polyprotein (Hepatitis C virus, UniProt Q2Q167). The assay is described as follows: disruption of hepatitis C core self-association – biochemical, TR-FRET, dose response (AID 2159).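 Note: blocks dimerization of HCV core protein measured by TR-FRET between tagged core106 pairs.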 The arrangement: species or system Hepacivirus hominis.
For assay [9], the target named is T3, SUMO-activating enzyme. The assay is described as follows: blockers of SAE1/SAE2–UBC9 SUMO transfer – biochemical, HTRF, uHTS, primary screen (AID 2006). In kind it is protein-complex assay.
Assay [10] deals with DNA (cytosine-5)-methyltransferase 1 (Homo sapiens, UniProt P26358). Description: inhibition of DNA methylation by DNMT1 – biochemical, fluorescent molecular beacon, confirmation (AID 602386). The assay is classed as functional.
For assay [11], the target named is T4, Bcl-2-like protein 10 (Homo sapiens, UniProt Q9HD36).
T4 sequence (Q9HD36 whole entry): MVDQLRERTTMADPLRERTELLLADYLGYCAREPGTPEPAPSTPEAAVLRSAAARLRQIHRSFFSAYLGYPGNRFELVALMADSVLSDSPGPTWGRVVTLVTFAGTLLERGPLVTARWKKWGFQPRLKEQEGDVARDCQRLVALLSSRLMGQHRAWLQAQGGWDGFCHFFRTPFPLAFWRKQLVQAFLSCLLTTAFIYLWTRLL
Description: Bcl-B/TR3 peptide binding disruption – biochemical, fluorescence polarization, FITC-TR3 peptide, selectivity assay for Bfl-1 inhibitor project, primary screen (AID 748).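 Note: fluorescence polarization from a fluorescein-labelled TR3 peptide binding purified Bcl-B.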 In general terms: In fluorescence polarisation assays a small probe gives low polarisation when free and higher when bound to something large.

The target in assay [12] is T2, Voltage-gated N-type calcium channel alpha-1B subunit/Amyloid beta A4 precursor protein-binding family A member 1. The assay is described as follows: disruptors of Mint-PDZ/N-type channel peptide interaction – biochemical, HTRF, SAR follow-up (AID 2489). In kind it is functional.
Assay [13] deals with Protein-tyrosine kinase 2-beta (Homo sapiens, UniProt Q14289).
Assay [14] addresses Luciferin 4-monooxygenase (Photinus pyralis, UniProt P08659). Description: inhibition of purified Photinus pyralis luciferase – biochemical, luminescence, dose response (AID 1891).
The target in assay [15] is T5, Zinc finger protein mex-5 (Caenorhabditis elegans, UniProt Q9XUB2).
T5 sequence (Q9XUB2 whole entry): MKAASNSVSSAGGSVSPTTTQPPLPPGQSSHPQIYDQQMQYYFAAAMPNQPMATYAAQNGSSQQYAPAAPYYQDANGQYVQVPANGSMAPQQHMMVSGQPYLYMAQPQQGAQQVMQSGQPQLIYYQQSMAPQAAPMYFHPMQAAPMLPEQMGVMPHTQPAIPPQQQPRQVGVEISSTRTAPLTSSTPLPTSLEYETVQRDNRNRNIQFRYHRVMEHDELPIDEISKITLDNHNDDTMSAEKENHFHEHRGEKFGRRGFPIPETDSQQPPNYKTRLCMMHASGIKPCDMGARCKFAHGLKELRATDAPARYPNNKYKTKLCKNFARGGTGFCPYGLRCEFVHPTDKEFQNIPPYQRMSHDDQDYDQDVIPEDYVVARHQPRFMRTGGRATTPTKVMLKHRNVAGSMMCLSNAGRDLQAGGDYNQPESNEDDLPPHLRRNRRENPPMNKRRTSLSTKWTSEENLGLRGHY
Description: potency of MEX-5 RNA-binding blockers – biochemical, C. elegans, fluorescence polarization, dose response (AID 1960).

Assay [16] in a line: Luminescence Cell-Based Dose Confirmation HTS to Identify Inhibitors of Platelet Dense Granule Release. [Related pubchem assays: 1663 (Primary HTS), 1678 (Summary of Project)]. The assay is classed as functional.
For assay [17], the target named is T6, Histone-lysine N-methyltransferase NSD2 (Homo sapiens, UniProt O96028).
T6 sequence (O96028 whole entry): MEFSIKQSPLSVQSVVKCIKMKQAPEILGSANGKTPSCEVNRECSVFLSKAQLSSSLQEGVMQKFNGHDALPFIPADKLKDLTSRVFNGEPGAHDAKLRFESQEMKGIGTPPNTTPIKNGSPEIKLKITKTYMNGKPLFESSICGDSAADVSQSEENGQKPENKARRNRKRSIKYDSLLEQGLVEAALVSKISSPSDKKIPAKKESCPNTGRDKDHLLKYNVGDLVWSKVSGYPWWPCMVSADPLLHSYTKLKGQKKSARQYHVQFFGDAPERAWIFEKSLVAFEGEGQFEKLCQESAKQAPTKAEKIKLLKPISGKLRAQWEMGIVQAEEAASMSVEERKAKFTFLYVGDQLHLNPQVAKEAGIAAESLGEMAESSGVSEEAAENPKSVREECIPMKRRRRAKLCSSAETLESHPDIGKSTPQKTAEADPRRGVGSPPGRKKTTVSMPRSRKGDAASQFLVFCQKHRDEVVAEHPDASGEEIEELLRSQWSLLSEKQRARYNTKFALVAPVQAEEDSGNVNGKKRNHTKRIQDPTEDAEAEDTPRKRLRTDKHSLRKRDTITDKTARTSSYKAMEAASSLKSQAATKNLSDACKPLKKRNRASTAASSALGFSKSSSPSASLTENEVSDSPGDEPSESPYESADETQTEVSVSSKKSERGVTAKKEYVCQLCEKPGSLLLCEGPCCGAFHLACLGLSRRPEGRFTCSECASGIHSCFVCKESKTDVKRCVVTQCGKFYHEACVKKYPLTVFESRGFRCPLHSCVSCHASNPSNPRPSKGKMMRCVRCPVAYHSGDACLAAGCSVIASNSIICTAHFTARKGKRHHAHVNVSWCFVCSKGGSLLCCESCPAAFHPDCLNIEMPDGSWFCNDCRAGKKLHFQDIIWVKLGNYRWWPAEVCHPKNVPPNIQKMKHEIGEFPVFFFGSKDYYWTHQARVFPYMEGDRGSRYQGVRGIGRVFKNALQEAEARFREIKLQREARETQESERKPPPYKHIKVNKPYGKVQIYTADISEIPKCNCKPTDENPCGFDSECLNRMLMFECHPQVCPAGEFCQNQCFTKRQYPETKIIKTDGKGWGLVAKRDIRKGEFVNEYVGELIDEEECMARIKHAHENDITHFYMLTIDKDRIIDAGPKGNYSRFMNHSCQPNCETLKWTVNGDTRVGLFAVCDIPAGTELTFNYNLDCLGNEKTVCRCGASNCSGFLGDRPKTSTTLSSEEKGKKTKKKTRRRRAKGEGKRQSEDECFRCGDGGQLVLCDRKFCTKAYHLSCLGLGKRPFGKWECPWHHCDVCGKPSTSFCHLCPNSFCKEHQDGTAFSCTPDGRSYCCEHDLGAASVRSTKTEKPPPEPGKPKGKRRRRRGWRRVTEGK
The assay is classed as biochemical.

Assay [18] in a line: antibacterial activity against E. coli NEB5alpha – luminescence, counter-screen for MEX-5/POS-1 RNA-binding inhibitor project, dose response (AID 1959). The assay is classed as functional.
Assay [19] addresses T7, RNA-binding protein pos-1 (Caenorhabditis elegans, UniProt G5EF15).
T7 sequence (G5EF15 whole entry): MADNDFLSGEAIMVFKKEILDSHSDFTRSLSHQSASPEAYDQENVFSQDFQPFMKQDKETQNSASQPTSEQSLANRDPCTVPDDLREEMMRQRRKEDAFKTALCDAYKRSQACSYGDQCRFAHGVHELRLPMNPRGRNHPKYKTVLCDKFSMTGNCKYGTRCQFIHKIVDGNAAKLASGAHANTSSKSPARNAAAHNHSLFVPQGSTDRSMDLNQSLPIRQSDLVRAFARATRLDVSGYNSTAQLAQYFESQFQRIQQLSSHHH
Description: disruptors of C. elegans POS-1 RNA interaction – biochemical, fluorescence polarization, dose response (AID 1964).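 Note: purified POS-1 fused to maltose binding protein made in E. coli; potency of compounds blocking POS-1 binding to fluorescent RNA.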

Assay [20] has as its target Large T antigen (Simian virus 40, UniProt P03070). In kind it is functional, Betapolyomavirus macacae.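 Note: Confirmatory-stage PubChem screen for compounds that inhibit SV40 T antigen.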
In assay [21] the target is T8, Bcl-2-related protein A1 (Mus musculus, UniProt Q07440).
T8 sequence (Q07440 whole entry): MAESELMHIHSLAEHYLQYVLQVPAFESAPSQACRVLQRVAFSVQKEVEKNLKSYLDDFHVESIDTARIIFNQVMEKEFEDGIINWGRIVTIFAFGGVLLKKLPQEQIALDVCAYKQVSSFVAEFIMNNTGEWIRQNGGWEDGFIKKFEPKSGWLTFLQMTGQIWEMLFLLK
Description: small-molecule antagonists of Bfl-1/BH3 interaction – biochemical, TR-FRET, mouse Bfl-1, confirmation (AID 621).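 Note: TR-FRET binding of GST-Bfl-1 to FITC-labelled Bid peptide via terbium antibody.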

Assay [22] has as its target T8, Bcl-2-related protein A1. The assay is described as follows: Bfl-1 binding inhibitors, SAR follow-up, biochemical, fluorescence polarization (AID 1070).
Assay [23] deals with Glyceraldehyde-3-phosphate dehydrogenase (Homo sapiens, UniProt P04406).
In assay [24] the target is Aspartyl aminopeptidase (Plasmodium falciparum 3D7, UniProt Q8I2J3). Description: Counterscreen for inhibitors of M1 and M17 aminopeptidases: QFRET-based biochemical high throughput dose response assay for inhibitors of the Plasmodium falciparum M18 Aspartyl Aminopeptidase (PFM18AAP). [Related PubChem assays: 1619 (Screening assay (M17LAP inhibitors).), 1445 (Screening assay (M1AAP inhibitors).)].

Assay [25] concerns the target T9, Leucine aminopeptidase (Plasmodium falciparum 3D7, UniProt Q8IL11).
T9 sequence (Q8IL11 whole entry): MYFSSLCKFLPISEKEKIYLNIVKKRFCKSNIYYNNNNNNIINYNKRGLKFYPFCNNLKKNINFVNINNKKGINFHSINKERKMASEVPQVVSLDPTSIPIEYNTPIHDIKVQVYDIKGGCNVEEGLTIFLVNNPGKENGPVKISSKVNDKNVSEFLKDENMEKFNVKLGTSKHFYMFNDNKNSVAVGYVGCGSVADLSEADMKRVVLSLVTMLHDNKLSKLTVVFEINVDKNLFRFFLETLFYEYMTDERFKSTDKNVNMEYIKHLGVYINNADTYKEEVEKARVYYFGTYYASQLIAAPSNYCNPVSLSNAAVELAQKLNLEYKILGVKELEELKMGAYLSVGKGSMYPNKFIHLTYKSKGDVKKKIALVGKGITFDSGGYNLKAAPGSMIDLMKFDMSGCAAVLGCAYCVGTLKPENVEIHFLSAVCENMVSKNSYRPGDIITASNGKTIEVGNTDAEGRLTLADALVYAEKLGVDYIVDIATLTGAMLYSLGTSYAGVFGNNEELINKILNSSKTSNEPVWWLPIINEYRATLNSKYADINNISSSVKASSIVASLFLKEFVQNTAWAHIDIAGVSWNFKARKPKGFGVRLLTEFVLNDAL
Description: P. falciparum M17LAP inhibitors, primary screen, biochemical, fluorogenic H-Leu-NHMec substrate, 1536-well (AID 1619). In kind it is functional.

Assay [26] concerns the target Procathepsin L (Homo sapiens, UniProt P07711). The assay is described as follows: CTSL1 protease inhibition – biochemical, QFRET, 1536-well, counter-screen for M1/M17 aminopeptidase inhibitor project, dose response (AID 2214).

T2 sequence (Q00975 whole entry): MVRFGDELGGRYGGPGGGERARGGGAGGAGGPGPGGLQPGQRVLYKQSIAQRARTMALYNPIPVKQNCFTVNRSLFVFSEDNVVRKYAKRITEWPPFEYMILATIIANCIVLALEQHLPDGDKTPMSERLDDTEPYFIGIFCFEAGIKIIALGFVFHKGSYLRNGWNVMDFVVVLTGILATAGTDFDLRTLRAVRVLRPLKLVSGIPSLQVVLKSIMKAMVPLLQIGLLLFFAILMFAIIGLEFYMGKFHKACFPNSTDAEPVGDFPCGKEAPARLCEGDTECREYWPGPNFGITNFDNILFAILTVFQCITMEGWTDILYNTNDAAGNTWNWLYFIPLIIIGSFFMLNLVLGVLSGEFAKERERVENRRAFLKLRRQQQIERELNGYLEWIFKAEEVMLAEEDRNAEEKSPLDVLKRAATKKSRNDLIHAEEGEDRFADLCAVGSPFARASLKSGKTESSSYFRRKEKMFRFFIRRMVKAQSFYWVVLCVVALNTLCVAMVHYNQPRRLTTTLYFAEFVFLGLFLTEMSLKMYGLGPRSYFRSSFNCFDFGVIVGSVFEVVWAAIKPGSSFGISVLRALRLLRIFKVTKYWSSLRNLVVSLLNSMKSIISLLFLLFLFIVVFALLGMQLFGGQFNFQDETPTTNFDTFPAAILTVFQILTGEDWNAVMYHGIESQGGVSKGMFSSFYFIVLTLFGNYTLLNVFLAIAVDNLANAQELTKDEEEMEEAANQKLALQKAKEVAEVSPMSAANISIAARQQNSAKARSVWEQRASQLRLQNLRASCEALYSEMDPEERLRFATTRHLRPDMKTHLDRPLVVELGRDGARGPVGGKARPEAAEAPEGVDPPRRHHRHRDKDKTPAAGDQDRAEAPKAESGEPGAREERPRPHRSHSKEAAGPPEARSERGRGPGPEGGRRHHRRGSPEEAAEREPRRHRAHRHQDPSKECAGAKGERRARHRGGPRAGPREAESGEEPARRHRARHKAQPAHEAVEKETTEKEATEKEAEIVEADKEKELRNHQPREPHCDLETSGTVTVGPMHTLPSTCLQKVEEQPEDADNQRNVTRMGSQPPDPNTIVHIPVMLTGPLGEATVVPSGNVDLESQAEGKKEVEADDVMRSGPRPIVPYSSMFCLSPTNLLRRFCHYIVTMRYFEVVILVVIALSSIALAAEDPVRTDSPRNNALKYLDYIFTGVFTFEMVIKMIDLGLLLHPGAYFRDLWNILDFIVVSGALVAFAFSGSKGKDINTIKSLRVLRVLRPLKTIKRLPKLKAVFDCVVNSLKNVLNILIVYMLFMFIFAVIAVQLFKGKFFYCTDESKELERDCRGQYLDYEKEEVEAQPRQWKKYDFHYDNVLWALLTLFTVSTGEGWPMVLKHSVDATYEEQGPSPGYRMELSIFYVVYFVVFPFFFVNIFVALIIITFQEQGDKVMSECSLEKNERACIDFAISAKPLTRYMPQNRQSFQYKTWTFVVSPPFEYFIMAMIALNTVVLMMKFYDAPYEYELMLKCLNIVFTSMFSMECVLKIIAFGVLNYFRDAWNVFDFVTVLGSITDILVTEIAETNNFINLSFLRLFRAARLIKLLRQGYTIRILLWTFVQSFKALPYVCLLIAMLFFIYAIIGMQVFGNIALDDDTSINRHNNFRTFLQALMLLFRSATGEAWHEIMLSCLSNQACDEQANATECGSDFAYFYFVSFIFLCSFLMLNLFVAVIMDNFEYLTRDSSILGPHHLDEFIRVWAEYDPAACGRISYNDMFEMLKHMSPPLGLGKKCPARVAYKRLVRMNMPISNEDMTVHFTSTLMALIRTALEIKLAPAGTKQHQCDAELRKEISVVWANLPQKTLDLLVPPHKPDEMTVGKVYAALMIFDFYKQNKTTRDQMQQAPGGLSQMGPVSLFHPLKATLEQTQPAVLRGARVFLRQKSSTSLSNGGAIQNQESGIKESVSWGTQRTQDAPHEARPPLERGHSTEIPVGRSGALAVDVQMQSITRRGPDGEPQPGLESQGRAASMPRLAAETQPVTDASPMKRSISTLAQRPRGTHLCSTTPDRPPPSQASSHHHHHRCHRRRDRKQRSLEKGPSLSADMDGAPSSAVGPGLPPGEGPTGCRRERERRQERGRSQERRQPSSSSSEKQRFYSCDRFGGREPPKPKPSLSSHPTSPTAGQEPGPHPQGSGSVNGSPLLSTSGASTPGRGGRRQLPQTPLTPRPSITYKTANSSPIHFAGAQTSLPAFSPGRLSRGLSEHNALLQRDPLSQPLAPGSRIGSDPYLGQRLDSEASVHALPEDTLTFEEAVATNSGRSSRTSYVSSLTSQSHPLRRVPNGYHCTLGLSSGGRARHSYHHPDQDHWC
T2 sequence (Q02410 whole entry): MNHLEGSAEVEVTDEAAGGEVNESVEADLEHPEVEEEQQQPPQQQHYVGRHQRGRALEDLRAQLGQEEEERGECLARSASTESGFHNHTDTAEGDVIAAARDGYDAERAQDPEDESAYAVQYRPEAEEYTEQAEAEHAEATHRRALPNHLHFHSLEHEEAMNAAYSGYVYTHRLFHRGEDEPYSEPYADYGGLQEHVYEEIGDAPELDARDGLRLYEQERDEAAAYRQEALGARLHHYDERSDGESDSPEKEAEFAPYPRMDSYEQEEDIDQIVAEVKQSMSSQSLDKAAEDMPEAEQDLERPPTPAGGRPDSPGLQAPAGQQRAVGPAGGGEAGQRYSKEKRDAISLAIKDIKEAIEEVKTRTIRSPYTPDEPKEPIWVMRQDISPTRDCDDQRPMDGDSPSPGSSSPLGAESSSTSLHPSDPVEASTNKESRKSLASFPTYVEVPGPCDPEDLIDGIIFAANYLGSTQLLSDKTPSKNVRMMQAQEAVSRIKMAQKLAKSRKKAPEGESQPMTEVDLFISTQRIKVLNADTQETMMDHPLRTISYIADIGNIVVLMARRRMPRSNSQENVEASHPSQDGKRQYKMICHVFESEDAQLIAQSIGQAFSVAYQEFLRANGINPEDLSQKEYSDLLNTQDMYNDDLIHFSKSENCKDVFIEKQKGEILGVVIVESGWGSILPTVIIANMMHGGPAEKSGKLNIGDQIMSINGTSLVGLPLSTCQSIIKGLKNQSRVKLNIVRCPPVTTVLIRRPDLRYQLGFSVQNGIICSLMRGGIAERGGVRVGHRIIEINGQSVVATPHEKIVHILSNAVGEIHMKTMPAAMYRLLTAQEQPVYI
Genome polyprotein, sequence (Q2Q167 whole entry): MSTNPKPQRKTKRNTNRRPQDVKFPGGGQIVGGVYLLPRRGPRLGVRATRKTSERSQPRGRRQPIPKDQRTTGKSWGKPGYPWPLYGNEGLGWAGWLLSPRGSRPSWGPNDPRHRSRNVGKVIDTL
Luciferin 4-monooxygenase, sequence (P08659 whole entry): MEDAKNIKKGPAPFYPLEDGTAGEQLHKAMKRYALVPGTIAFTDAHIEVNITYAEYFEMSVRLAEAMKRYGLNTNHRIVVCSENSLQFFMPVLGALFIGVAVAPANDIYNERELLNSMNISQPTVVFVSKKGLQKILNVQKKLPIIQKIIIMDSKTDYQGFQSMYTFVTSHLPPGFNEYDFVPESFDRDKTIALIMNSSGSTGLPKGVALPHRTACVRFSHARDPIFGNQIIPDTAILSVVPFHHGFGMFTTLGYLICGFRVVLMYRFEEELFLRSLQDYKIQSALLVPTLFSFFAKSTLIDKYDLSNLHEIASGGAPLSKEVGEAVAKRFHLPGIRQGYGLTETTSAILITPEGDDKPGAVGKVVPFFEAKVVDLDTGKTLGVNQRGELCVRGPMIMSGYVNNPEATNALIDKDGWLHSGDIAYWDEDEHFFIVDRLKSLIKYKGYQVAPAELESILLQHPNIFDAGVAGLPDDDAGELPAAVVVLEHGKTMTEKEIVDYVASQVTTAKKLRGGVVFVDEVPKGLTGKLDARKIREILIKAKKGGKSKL

As to `CC(C)CC(Nc1ncnc2scc(-c3ccccc3)c12)C(=O)O` (stereo unspecified), the EC50 (usually the midpoint of the concentration-response curve) in [1] is > 120 µM (not active).
Take `COc1ccccc1CNC(=O)COC(=O)c1cc(-c2ccco2)nc2ccccc12`: the IC50 – broadly, the concentration needed to halve the response being measured – in assay [2] is > 100 µM (active); in [3], 5.8 µM (active); in assay [4], 7.83 µM (active); in assay [6], 2.04 µM (active); in assay [7], 5.42 µM (active); in assay [8], > 49.8 µM (not active). In addition, the IC50 is 10.6 µM (active) in assay [9]; 7.11 µM (active) in [10]; 10.7 µM (active) in assay [11]; 22.7 µM (active) in [12]; 5.79 µM (active) in assay [13]. For the same molecule, the CC50 (usually the concentration at which the toxic effect on the cells reaches its halfway point) in [5] is > 40 µM (active).
For `O=C(/C=C/c1ccc(O)c(O)c1)c1ccccc1O`, the EC50 is 0.437 µM (active) in assay [14]; 42.3 µM (active) in assay [15]; 2.23 µM (active) in assay [16]; 19.5 µM (active) in assay [18]; > 300 µM (not active) in assay [19]. Further, in [17], the AC50 (in general, the concentration at which the activity in the assay is half-maximal) is > 20 µM (inactive). The IC50 in assay [20] is 17.4 µM (active).
`CC1C(=O)NCCN1C1=C(Cl)C(=O)N(c2ccc(Cl)c(Cl)c2)C1=O` (stereo unspecified): the half-inhibitory concentration (IC50) in [21] is 2.03 µM (active); in [22], 5.63 µM (active); in assay [23], > 50 µM (inconclusive).
With `Cc1ccc(Nc2nnc(SCc3cc(=O)n4ccsc4n3)s2)c(C)c1`, the values for the IC50 in assay [24], in [25] and in assay [26] were > 73.5 µM (not active), 6.49 µM (active) and > 59.6 µM (not active), respectively.
